Assay [1] has as its system Human breast cancer cell line T47D. The experiment in a line: Cell based caspase-3 activity assay: potentiation of MMS induced apoptosis. Particulars: T47D cells, 11.1 μg/ml MMS, 24 hours, intracellular caspase-3 activity, read-out: EC50 (nM), potentiation of the apoptosis inducing activity of MMS. The method in brief:
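T47D cells were exposed for 24 h to compound plus a minimally apoptotic MMS dose (medium containing 11.1 μg/ml MMS). Lysates were incubated 3 h at 37 °C with (Ac-DEVD)2-R110 caspase-3 substrate (20 μM in added buffer) and read at ex 496/em 520 nm. EC50 came from a sigmoidal fit of RFU versus log concentration.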

The subject of assay [2] is SW620 human colorectal cancer cells. Description: MTT based cell viability assay: potentiation of the growth inhibiting activity of MMS.
Where [3] appears, read: Homo sapiens, SW-620, 120 h, read-out: IC50 (nM), potentiation of the growth inhibiting activity of MMS, SW620 cells, 1.7 μg/ml MMS, 5 days (120 hours), MTT.
Setting [4] is: read-out: IC50 (nM), potentiation of the growth inhibiting activity of MMS, SW620 cells, 1.7 μg/ml MMS, 5 days (120 hours), MTT, hydrochloride.

This passage reports EC50 and IC50 results from patent US9926304B2, “1-(arylmethyl)quinazoline-2,4(1H,3H)-diones as PARP inhibitors and the use thereof” (Impact Therapeutics, Inc., priority 2011, dated 2018).

Structures can show the parent of a compound that is named as a salt. Where two headings read alike, the source gives them in different places. Some results are limits rather than exact numbers.

For the molecule `O=C(c1cccc(Cn2c(=O)[nH]c(=O)c3c(F)cccc32)c1)N1CCN(C(=O)C2CCC2)CC1` [Example 165, 1-(3-(4-(Cyclobutylcarbonyl)piperazine-1-carbonyl)benzyl)-5-fluoroquinazoline-2,4(1H,3H)-dione], in assay [1] (Homo sapiens, T47D, 24 h), the EC50 (usually the concentration that produces a half-maximal response) was 18 nM. Also, in assay [2] (setting [3]), the IC50 amounted to 49 nM.
In the same order, the values of `O=C(c1cc(Cn2c(=O)[nH]c(=O)c3c(F)cccc32)ccc1F)N1CCN(C(=O)C2CCC2)CC1` [Example 166, 1-(3-(4-(Cyclobutylcarbonyl)piperazine-1-carbonyl)-4-fluorobenzyl)-5-fluoroquinazoline-2,4(1H,3H)-dione] are 1.6 nM and 4 nM.
In the same order, the values of `O=C(c1ccc(F)c(Cn2c(=O)[nH]c(=O)c3cc(Cl)ccc32)c1)N1CCN(C(=O)C2CCC2)CC1` [Example 167, 6-Chloro-1-(3-(4-(cyclobutylcarbonyl)piperazine-1-carbonyl)-6-fluorobenzyl)quinazoline-2,4(1H,3H)-dione] are 5 nM and 5.7 nM.
Turning to `O=C(c1cc(Cn2c(=O)[nH]c(=O)c3cc(Cl)ccc32)ccc1F)N1CCN(C(=O)C2CCC2)CC1` [Example 169, 6-Chloro-1-(3-(4-(cyclobutylcarbonyl)piperazine-1-carbonyl)-4-fluorobenzyl)quinazoline-2,4(1H,3H)-dione], the EC50 in assay [1] (Homo sapiens, T47D, 24 h) amounted to 1 nM. In addition, the IC50 in assay [2] (setting [3]) was determined as 3.4 nM.
On to `O=C(c1ccc(F)c(Cn2c(=O)[nH]c(=O)c3c(Cl)cccc32)c1)N1CCN(C(=O)C2CCC2)CC1` [Example 170, 5-Chloro-1-(3-(4-(cyclobutylcarbonyl)piperazine-1-carbonyl)-6-fluorobenzyl)quinazoline-2,4(1H,3H)-dione], for which the EC50 in assay [1] (Homo sapiens, T47D, 24 h) is 43 nM. Also, the IC50 in assay [2] (setting [3]) came out at 120 nM.
In the same order, the values of `O=C(c1ccc(F)c(Cn2c(=O)[nH]c(=O)c3c(Cl)cccc32)c1)N1CCN(C(=O)c2cccs2)CC1` [Example 171, 5-Chloro-1-(6-fluoro-3-(4-(thiophene-2-carbonyl)piperazine-1-carbonyl)benzyl)quinazoline-2,4(1H,3H)-dione] are 23 nM and 70 nM.
The matching figures for `O=C(c1ccc(F)c(Cn2c(=O)[nH]c(=O)c3c(Cl)cccc32)c1)N1CCN(c2ccccn2)CC1` [Example 173, 5-Chloro-1-(6-fluoro-3-(4-(pyridin-2-yl)piperazine-1-carbonyl)benzyl)quinazoline-2,4(1H,3H)-dione]: 122 nM and 228 nM.
In the same order, the values of `O=C(c1ccc(F)c(Cn2c(=O)[nH]c(=O)c3cc(Cl)ccc32)c1)N1CCN(c2ccccn2)CC1` [Example 174, 6-Chloro-1-(6-fluoro-3-(4-(pyridin-2-yl)piperazine-1-carbonyl)benzyl)quinazoline-2,4(1H,3H)-dione] are 37 nM and 94 nM.
For the molecule `O=C(c1cc(F)cc(Cn2c(=O)[nH]c(=O)c3cc(Cl)ccc32)c1)N1CCN(c2ncccn2)CC1` [Example 175, 6-Chloro-1-(5-fluoro-3-(4-(pyrimidin-2-yl)piperazine-1-carbonyl)benzyl)quinazoline-2,4(1H,3H)-dione], the EC50 in assay [1] (Homo sapiens, T47D, 24 h) turned out to be 14 nM. The IC50 in assay [2] (setting [3]) is 16 nM.
The matching figures for `O=C(c1cccc(Cn2c(=O)[nH]c(=O)c3ccccc32)c1)N1CCN(C2CCCC2)CC1` [Example 177, 1-(3-(4-Cyclopentylpiperazine-1-carbonyl)benzyl)quinazoline-2,4(1H,3H)-dione]: 743 nM and more than 10000 nM.
The matching figures for `O=C(c1cc(Cn2c(=O)[nH]c(=O)c3cc(F)ccc32)ccc1F)N1CCN(C(=O)C2CC2)CC1` [Example 178, 1-(3-(4-(Cyclopropylcarbonyl)piperazine-1-carbonyl)-4-fluorobenzyl)-6-fluoroquinazoline-2,4(1H,3H)-dione]: 11 nM and 7.9 nM.
The matching figures for `O=C(c1cccc(Cn2c(=O)[nH]c(=O)c3cc(F)ccc32)c1)N1CCN(C(=O)C2CCC2)CC1` [Example 179, 1-(3-(4-(Cyclobutylcarbonyl)piperazine-1-carbonyl)benzyl)-6-fluoroquinazoline-2,4(1H,3H)-dione]: 7.4 nM and 12 nM.
As to `O=C(c1cc(Cn2c(=O)[nH]c(=O)c3cc(F)ccc32)ccc1F)N1CCN(C(=O)C2CCC2)CC1` [Example 180, 1-(3-(4-(Cyclobutylcarbonyl)piperazine-1-carbonyl)-4-fluorobenzyl)-6-fluoroquinazoline-2,4(1H,3H)-dione], in assay [1] (Homo sapiens, T47D, 24 h), the EC50 turned out to be 1.4 nM. In addition, the IC50 in assay [2] (setting [3]) is 3.1 nM.
The matching figures for `O=C(c1ccccc1)N1CCN(C(=O)c2cc(Cn3c(=O)[nH]c(=O)c4cc(F)ccc43)ccc2F)CC1` [Example 181, 1-(3-(4-Benzoylpiperazine-1-carbonyl)-4-fluorobenzyl)-6-fluoroquinazoline-2,4(1H,3H)-dione]: 2.4 nM and 4.9 nM.
In the same order, the values of `O=C(c1ccc(F)c(Cn2c(=O)[nH]c(=O)c3c(F)cccc32)c1)N1CCN(C(=O)C2CCC2)CC1` [Example 182, 1-(3-(4-(Cyclobutylcarbonyl)piperazine-1-carbonyl)-6-fluorobenzyl)-5-fluoroquinazoline-2,4(1H,3H)-dione] are 14 nM and 16 nM.
The matching figures for `O=C(c1ccc(F)c(Cn2c(=O)[nH]c(=O)c3cc(F)ccc32)c1)N1CCN(C(=O)C2CCC2)CC1` [Example 183, 1-(3-(4-(Cyclobutylcarbonyl)piperazine-1-carbonyl)-6-fluorobenzyl)-6-fluoroquinazoline-2,4(1H,3H)-dione]: 6.1 nM and 13 nM.
With `O=C(c1ccc(F)c(Cn2c(=O)[nH]c(=O)c3c(F)cccc32)c1)N1CCN(C(=O)c2ccco2)CC1` [Example 184, 5-Fluoro-1-(6-fluoro-3-(4-(furan-2-carbonyl)piperazine-1-carbonyl)benzyl)quinazoline-2,4(1H,3H)-dione], in assay [1] (Homo sapiens, T47D, 24 h), the EC50 was found to be 18 nM. The IC50 in assay [2] (setting [3]) amounted to 62 nM.
For the molecule `O=C(c1ccc(Cl)c(Cn2c(=O)[nH]c(=O)c3cc(F)ccc32)c1)N1CCN(c2ncccn2)CC1` [Example 187, 1-(6-Chloro-3-(4-(pyrimidin-2-yl)piperazine-1-carbonyl)benzyl)-6-fluoroquinazoline-2,4(1H,3H)-dione], the EC50 in assay [1] (Homo sapiens, T47D, 24 h) was found to be 30 nM. For the same molecule, the IC50 in assay [2] (setting [3]) was found to be 27 nM.
Turning to `O=C(c1cc(Cn2c(=O)[nH]c(=O)c3ccccc32)ccc1F)N1CCN(c2ncccn2)CC1` [Example 192, 1-(4-Fluoro-3-(4-(pyrimidin-2-yl)piperazine-1-carbonyl)benzyl)quinazoline-2,4(1H,3H)-dione hydrochloride], the concentration giving a half-maximal response (EC50) in assay [1] (hydrochloride) was 3.1 nM. The IC50 in assay [2] (setting [4]) turned out to be 79 nM.
In the same order, the values of `O=C(c1cc(Cn2c(=O)[nH]c(=O)c3c(F)cccc32)ccc1F)N1CCN(c2ncccn2)CC1` [Example 193, 5-Fluoro-1-(4-fluoro-3-(4-(pyrimidin-2-yl)piperazine-1-carbonyl)benzyl)quinazoline-2,4(1H,3H)-dione hydrochloride] are 1.6 nM and 4.5 nM.
Turning to `O=C(c1cccc(Cn2c(=O)[nH]c(=O)c3ccccc32)c1)N1CCN(c2ncccn2)CC1` [Example 194, 1-(3-(4-(Pyrimidin-2-yl)piperazine-1-carbonyl)benzyl)quinazoline-2,4(1H,3H)-dione hydrochloride], the EC50 in assay [1] (Homo sapiens, T47D, 24 h) turned out to be 11 nM. For the same molecule, in assay [2] (setting [3]), the IC50 was found to be 18 nM.
